pIC50: −log10 of the molar value.
Experiments:
ETB = molecular target: T1, ETB (Sus scrofa, UniProt P35463); test: ETB Antagonistic Activity: radioligand binding assay, effect on specific binding of [^125 I]ET-1 in porcine kidney membrane; details: inner medulla of porcine kidney membrane; [^125 I]ET-1 16 pM
T1 construct: Membranes as endothelin receptors were isolated from inner medulla of porcine kidney; from tissue; host or cells: inner medulla of porcine kidney, crude membranes
T1 sequence (P35463 27-443): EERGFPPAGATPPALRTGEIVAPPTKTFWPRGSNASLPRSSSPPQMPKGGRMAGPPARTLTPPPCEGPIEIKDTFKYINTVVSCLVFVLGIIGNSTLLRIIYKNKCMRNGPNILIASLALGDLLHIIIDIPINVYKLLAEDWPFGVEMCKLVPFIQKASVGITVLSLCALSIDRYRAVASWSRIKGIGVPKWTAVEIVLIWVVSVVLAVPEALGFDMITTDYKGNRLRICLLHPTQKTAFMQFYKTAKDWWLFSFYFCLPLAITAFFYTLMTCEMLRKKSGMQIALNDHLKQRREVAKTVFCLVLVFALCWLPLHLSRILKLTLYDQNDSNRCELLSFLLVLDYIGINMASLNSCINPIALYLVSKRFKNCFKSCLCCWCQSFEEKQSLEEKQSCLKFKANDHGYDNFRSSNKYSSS
Experimental: (ETB Antagonistic Activity)
(§1) Radioligand binding assay:
(§2) (a) Crude receptor membrane preparation:
Membranes as endothelin receptors were isolated from inner medulla of porcine kidney. The inner medulla of porcine kidney was placed in ice-cold buffer (0.25M sucrose, 5 mM Tris-HCl, 0.1 mM EDTA, pH 7.5). The inner medulla was homogenized in five volumes (w/v) of ice-cold buffer using a Brinkman Polytron PT-10 at a setting of 16,000 rpm for three 10-sec periods. The homogenate was centrifuged at 10,000× g for 20 minutes at 4° C. The pellet was discarded and the supernatant was centrifuged at 100,000× g for 60 minutes at 4° C. […]
To determine [^125 I]ET-1 binding to kidney, membrane suspensions prepared from kidney (10 μg of protein) were incubated by constant shaking for 60 minutes at 23° C. with [^125 I]ET-1 (range, 4-900 pM) in a total volume of 250 μl of buffer 1 that contained 0.1 mg/ml of bovine serum albumin. […] The filter disks were washed three times with 0.1 ml of ice-cold 50 mM Tris-HCl buffer (pH 7.5), and the radioactivity was counted in a gamma counter (Hewlett-Packard) with an efficiency of 71%. […] The Kd was determined by Scatchard analysis. […]

ETA = molecular target: T2, ETA (Sus scrofa, UniProt Q29010); test: ETA Antagonistic Activity: radioligand binding assay, effect on specific binding of ^125 I-endothelin-1 in porcine aorta membrane; details: ^125 I-Endothelin-1 1.67×10^-11 M, room temperature, 60 minutes
T2 construct: The aorta membrane fractions were stored at -80° C. until use; tissue Pel-Freez Biologicals (U.S.A.); host or cells: porcine aorta, crude membrane fraction
T2 sequence (Q29010 21-427): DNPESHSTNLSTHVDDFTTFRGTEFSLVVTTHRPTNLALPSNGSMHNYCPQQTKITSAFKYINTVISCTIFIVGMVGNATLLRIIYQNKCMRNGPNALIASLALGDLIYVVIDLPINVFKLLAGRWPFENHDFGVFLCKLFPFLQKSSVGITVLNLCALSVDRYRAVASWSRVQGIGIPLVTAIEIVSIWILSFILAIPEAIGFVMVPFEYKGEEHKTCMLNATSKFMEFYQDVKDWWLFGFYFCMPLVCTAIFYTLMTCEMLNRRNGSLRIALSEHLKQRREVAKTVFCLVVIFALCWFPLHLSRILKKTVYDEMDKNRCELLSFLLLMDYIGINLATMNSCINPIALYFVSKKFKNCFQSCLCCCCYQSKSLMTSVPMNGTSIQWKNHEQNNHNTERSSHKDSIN
Experimental: (ETA Antagonistic Activity)
as §1, §2
Porcine aorta was purchased from Pel-Freez Biologicals (U.S.A.) and stored at -80° C. until use.
Porcine aorta (50 g) was thawed and dissected free from fatty tissue, minced with scissors and then homogenized with a polytron (Brinkmann PT-20, maximal speed for 3×10 sec) in 100 ml buffer (0.25M sucrose, 10 mM Tris-HCl, 0.1 mM EDTA).
The homogenate was centrifuged at 10,000 g for 20 minutes at 4° C.
The supernatant, containing the plasma membrane fraction, was centrifuged at 100,000 g for 60 minutes at 4° C., and then resultant pellets were referred to as crude membrane fractions.
The pellets were resuspended in 25 ml of binding assay buffer (50 mM Tris-HCl, 100 mM NaCl, 5 mM MgCl2, 1.5 μg/ml phenylmethylsulfonyl fluoride (PMSF), 120 μg/ml bacitracin, 12 μg/ml leupepcin, 6 μg/ml chymostain, 0.1% bovine serum albumin (BSA), pH 7.5).
The aorta membrane fractions were stored at -80° C. until use.
(b) ^125 I-endothelin-1 binding assay: […]
After incubation, the incubation mixture were filtered through Glass-fiber GF/C filter (pretreated with 0.1% polyethylene imine for 3 hours prior to use) using cell harvester (Brandel M-24S). […] The filters were counted in a gamma counter (Packard Auto Gamma Model 5650).

pIC50 (ETB)	pIC50 (ETA)	Compound
> 8.00	7.40	CCC[C@@H](O)[C@H](C(=O)N[C@@H](Cc1c[nH]c2ccccc12)C(=O)O)c1ccc2c(c1)OCO2 (mixture of isomers) [Compound B, N-[(2RS,3RS)-2-(3,4-Methylenedioxyphenyl)-3-hydroxyhexanoyl]-L-tryptophan]
7.12	–	O=C(O)[C@H](Cc1c[nH]c2ccccc12)NC(=O)[C@H](c1ccccc1O)[C@H](O)C1CCCCC1 [Compound A, N-[(2R,3R)-3-Cyclohexyl-2-(2-hydroxyphenyl)-3-hydroxypropionyl]-L-tryptophan]
–	6.28	CCC[C@@H](O)[C@H](C(=O)O)c1ccc2c(c1)OCO2 (racemic) [Compound C, (2RS,3RS)-2-(3,4-Methylenedioxyphenyl)-3-hydroxyhexanoic acid]

— patent US6207686A, “Endothelin antagonists” (Fujisawa Pharmaceutical Co., Ltd., priority 1994, dated 2001)
